Read-outs that look alike come from different tables or passages of the source.
Columns and labels:
ENPP1 [1] = target: T1, ENPP1 (Homo sapiens, UniProt P22413); assay: ENPP1 enzyme assay with AMP-pNP substrate (hydrolysis of ATP analog); assay type: biochemical
T1 sequence (P22413 1-925): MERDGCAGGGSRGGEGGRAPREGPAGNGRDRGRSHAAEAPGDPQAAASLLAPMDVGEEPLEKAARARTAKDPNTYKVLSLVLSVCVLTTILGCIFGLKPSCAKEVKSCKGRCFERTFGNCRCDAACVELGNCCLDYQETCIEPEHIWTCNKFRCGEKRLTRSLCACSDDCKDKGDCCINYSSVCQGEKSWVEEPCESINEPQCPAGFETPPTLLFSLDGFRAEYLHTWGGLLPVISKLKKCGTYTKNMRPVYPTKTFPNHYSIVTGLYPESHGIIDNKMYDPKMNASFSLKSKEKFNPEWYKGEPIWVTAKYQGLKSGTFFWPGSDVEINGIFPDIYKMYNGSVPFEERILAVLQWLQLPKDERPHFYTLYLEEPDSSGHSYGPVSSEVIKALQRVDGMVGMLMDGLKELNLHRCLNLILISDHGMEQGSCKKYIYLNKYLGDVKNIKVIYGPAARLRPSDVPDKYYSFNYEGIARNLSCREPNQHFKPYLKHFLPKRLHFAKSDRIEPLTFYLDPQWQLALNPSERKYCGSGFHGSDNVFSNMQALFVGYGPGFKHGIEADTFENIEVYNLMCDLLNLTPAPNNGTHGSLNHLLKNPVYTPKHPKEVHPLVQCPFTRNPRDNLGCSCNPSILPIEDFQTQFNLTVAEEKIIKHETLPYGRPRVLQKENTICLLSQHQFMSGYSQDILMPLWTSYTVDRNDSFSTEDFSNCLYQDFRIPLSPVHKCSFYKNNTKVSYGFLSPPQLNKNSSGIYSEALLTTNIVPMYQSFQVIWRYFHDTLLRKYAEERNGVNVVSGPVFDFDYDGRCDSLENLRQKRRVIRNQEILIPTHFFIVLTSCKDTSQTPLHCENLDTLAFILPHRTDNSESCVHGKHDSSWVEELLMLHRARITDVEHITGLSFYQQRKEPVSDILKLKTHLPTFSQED
Procedure, shortened: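 Reactions ran 20 min at 37 °C, pH 8.5 Tris buffer with NaCl, CaCl2, ZnCl2, using 300 µM AMP-pNP and 60 ng/well recombinant human ENPP1; inhibitor range 10 µM–30 pM, duplicates.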

ENPP1 [2] = target: T1, ENPP1; assay: Indirect quantitation of 2',3'-cGAMP hydrolysis (AMP-Glo Assay kit); assay type: biochemical
ENPP1 [3] = target: T1, ENPP1; assay: Substrate selectivity ratio, inhibition of cGAMP hydrolysis versus ATP hydrolysis; assay type: biochemical; conditions: ratio Ki AMP-pNP / Ki cGAMP
Experimental: The selectivity ratios for inhibition of cGAMP hydrolysis versus ATP hydrolysis were then calculated as follows: […]

ENPP1 [4] = target: T1, ENPP1; assay: ENPP1 enzyme assay with cGAMP substrate (AMP-Glo); assay type: biochemical; design: purchased R&D Systems; conditions: for inhibition at 1 µM: read-out: cGAMP: % Inhibition at 1 µM
Description: Example B1: ENPP1 Enzyme Assay With cGAMP Substrate
Ectonucleotide pyrophosphatase/phosphodiesterase 1 (ENPP-1) is a transmembrane glycoprotein that hydrolyzes nucleotides and nucleotide derivatives with the formation of nucleoside-5’-monophosphates. […] The 5’-AMP formed from the reaction is detected using the AMP-Glo® Kit (Promega). The assay kit contains two reagents. The first reagent terminates the enzymatic reaction, removes ATP (using adenylyl cyclase), and converts 5’-AMP produced into ADP (using polyphosphate: AMP phosphotransferase). The second reagent converts ADP to ATP (using adenylate kinase) and generates light from ATP using the luciferin/luciferase reaction.
Different concentrations of ENPP1 inhibitors are pre-incubated with 5 ng/well of human ENPP-1 enzyme (R&D Systems) for 15 minutes at 37° C. The reaction is initiated by adding 20 µM 2’3’-cGAMP and incubating for 30 minutes at 37° C. The final assay reaction mixture contains a buffer of 50 mM Tris pH 8.0, 250 mM NaCl, 0.5 mM CaCl2, 1 µM ZnCl2 and 1% DMSO. At the end of the incubation, the reaction is stopped by adding 12 µl of AMP-Glo reagent-1 and mixing the reaction uniformly for 5 minutes, followed by incubation at room temperature for one hour. Then 25 µl of AMP Glo reagent-2 is added to the reaction, mixed uniformly with a pipette, and incubated at room temperature for one hour to convert the ADP formed from reagent-1 to ATP and light. The generated light is measured in a Perkin Elmer Victor® instrument.
The IC50 values for percent inhibition versus compound concentration are determined by fitting the inhibition curves using a four-parameter variable slope model in GraphPad Prism® software. Ki values are derived from the IC50 values using the Cheng-Prusoff equation: […]

ENPP1 [5] = target: T1, ENPP1; assay: ENPP1 enzyme assay with TMP-pNP substrate; assay type: biochemical; design: purchased R&D Systems; conditions: for Ki: Ki from IC50 by Cheng-Prusoff; for inhibition at 10 µM: read-out: TMP-pNP: % inhibition at 10 uM, 10 uM compound
Experimental: Example B2: ENPP1 Enzyme Assay With TMP-pNP Substrate
Ectonucleotide pyrophosphatase/phosphodiesterase 1 (ENPP-1) is a transmembrane glycoprotein that hydrolyzes nucleotides and nucleotide derivatives with the formation of nucleotide-5’-monophosphates. ENPP-1 hydrolyzes thymidine 5’monophosphate p-nitrophenyl ester (TMP-pNP) to nucleotide-5’-monophosphate and p-nitrophenol, which is a chromogenic product. The amount of p-nitrophenol product formed is measured using its absorbance at 405 nm, which is directly proportional to enzyme activity. Different concentrations of inhibitors are pre-incubated with 15 ng/well of human ENPP-1 enzyme (R&D Systems) for 15 minutes at 37° C. The reaction is initiated by adding 200 µM TMP-pNP and incubating for 10 minutes at 37° C. The final assay reaction mixture contains a buffer of 50 mM Tris pH 8.0, 250 mM NaCl, 0.5 mM CaCl2, 1 µM ZnCl2 and 1% DMSO. The amount of product formed is measured directly in a Tecan® spectrophotometer. Maximal activity control samples (containing enzyme, substrate, and buffer in the absence of ENPP1 inhibitors: MAX) and background control samples (containing enzyme, substrate, and buffer plus a fully inhibitory concentration (3 µM) of the reference ENPP1 Inhibitor, Example 333: MIN) are simultaneously evaluated in order to calculate the percent inhibition at each compound concentration as follows:
The IC50 values for percent inhibition versus compound concentration are determined by fitting the inhibition curves (percent inhibition versus inhibitor concentration) using a four-parameter variable slope model in GraphPad Prism® software. Ki values are derived from the IC50 values using the Cheng-Prusoff equation: […]

IFN β gene transcription = assay: IFNβ mRNA in cGAMP-stimulated human foreskin fibroblasts (HFF-1); assay type: cell-based; conditions: cGAMP-stimulated human foreskin fibroblast cells (HFF-1)
Experimental: Human Foreskin Fibroblasts
The cell line was sourced from ATCC (Cat# SCRC-1041). Cells were cultured in 15% fetal bovine serum-containing growth medium. They were seeded in a 48 well plate @ 100,000 per well (300 µL), and incubated for 1 hour at 37° C., 5% CO2. 100 µl of compound (0.05 µM to 5 µM final concentrations) was added 30 min prior to addition of cGAMP (12.5 µM & 25 µM final concentrations). The plate was incubated for 3 hrs at 37° C., 5% CO2. Cells were washed with PBS and 250 µl of RLT reagent (provided in the RNA isolation kit (RNeasy Mini kit, Qiagen Cat # 74106). was added to each well. RNA was isolated using this kit as per the given protocol. RNA was converted to cDNA using a Bio-Rad cDNA conversion kit (iScript® cDNA synthesis kit, Bio-Rad Cat #170-8891). IFN βgene transcription was quantitated using SYBR green dye in an RT-PCR instrument. The methods and protocol were the same as for PBMCs, except that Interferon mRNA levels were normalized to GAPDH mRNA.

[6] = AMP-pNP substrate (ATP analog), Ki from IC50 by Cheng-Prusoff, read-out: ENPP1 Inhibition _AMP-pNP: Ki
[7] = cGAMP substrate, Ki from IC50 by Cheng-Prusoff, read-out: ENPP1 Inhibition -cGAMP: Ki
[8] = cGAMP substrate, Ki from IC50 by Cheng-Prusoff, read-out: cGAMP: Ki

## COc1cc2nc(N)nc(N3CCC(CCNS(N)(=O)=O)CC3)c2cc1OC [Example 1, N-(2-(1-(2-amino-6,7-dimethoxyquinazolin-4-yl)piperidin-4-yl)ethyl)sulfamide]
ENPP1 [1]; [6]
  Ki: 100 to 1000 nM
ENPP1 [2]; [7]
  Ki: < 100 nM
ENPP1 [3]
  Substrate Selectivity: Ki_AMP-pNP/Ki_cGAMP: 41.7
ENPP1 [4]; [8]
  Ki: < 100 nM
ENPP1 [5]
  Ki: 100 to 1000 nM

## CNc1nc(N2CCC(CCNS(N)(=O)=O)CC2)c2cc(OC)c(OC)cc2n1 [Example 2, N-(2-(1-(6,7-dimethoxy-2-(methylamino)quinazolin-4-yl)piperidin-4-yl)ethyl)sulfamide]
ENPP1 [1]; [6]
  Ki: > 1000 nM
ENPP1 [2]; [7]
  Ki: < 100 nM
ENPP1 [3]
  Substrate Selectivity: Ki_AMP-pNP/Ki_cGAMP: >39.0
ENPP1 [4]; 1 µM compound, cGAMP substrate
  inhibition at 1 µM: > 75%
ENPP1 [5]
  inhibition at 10 µM: > 75%

## COc1cc2nc(-c3cccnc3)nc(N3CCC(CCNS(N)(=O)=O)CC3)c2cc1OC [Example 5, N-(2-(1-(6,7-dimethoxy-2-(pyridin-3-yl)quinazolin-4-yl)piperidin-4-yl)ethyl)sulfamide]
ENPP1 [1]
  Ki: > 1000 nM
ENPP1 [2]
  Ki: 100 to 1000 nM
ENPP1 [3]
  Substrate Selectivity: Ki_AMP-pNP/Ki_cGAMP: >24
ENPP1 [4]
  Ki: 100 to 1000 nM
  inhibition at 1 µM: 50 to 75%
ENPP1 [5]
  inhibition at 10 µM: 50 to 75%

## COc1cc2ncc(C#N)c(N3CCC(CCNS(N)(=O)=O)CC3)c2cc1OC [Example 20, N-(2-(1-(3-cyano-6,7-dimethoxyquinolin-4-yl)piperidin-4-yl)ethyl)sulfamide]
ENPP1 [1]; [6]
  Ki: 100 to 1000 nM
ENPP1 [2]; [7]
  Ki: < 100 nM
ENPP1 [3]
  Substrate Selectivity: Ki_AMP-pNP/Ki_cGAMP: 489
ENPP1 [4]; 1 µM compound, cGAMP substrate
  inhibition at 1 µM: > 75%
ENPP1 [4]; [8]
  Ki: < 100 nM
ENPP1 [5]
  Ki: < 100 nM

## Cn1cnc2ncnc(N3CCC(CCNS(N)(=O)=O)CC3)c21 [Example 22, N-(2-(1-(7-methyl-7H-purin-6-yl)piperidin-4-yl)ethyl)sulfamide]
ENPP1 [1]; [6]
  Ki: > 1000 nM
ENPP1 [2]; [7]
  Ki: < 100 nM
ENPP1 [3]
  Substrate Selectivity: Ki_AMP-pNP/Ki_cGAMP: >115
ENPP1 [4]; [8]
  Ki: < 100 nM
ENPP1 [5]
  Ki: > 1000 nM

## COc1cc2ncnc(N3CCc4c(cccc4NS(N)(=O)=O)C3)c2cc1OC [Example 28, N-(2-(6,7-dimethoxyquinazolin-4-yl)-1,2,3,4-tetrahydroisoquinolin-5-yl)sulfamide]
ENPP1 [1]; [6]
  Ki: 100 to 1000 nM
ENPP1 [2]; [7]
  Ki: < 100 nM
ENPP1 [3]
  Substrate Selectivity: Ki_AMP-pNP/Ki_cGAMP: 31.2
ENPP1 [4]; [8]
  Ki: < 100 nM
ENPP1 [5]
  Ki: 100 to 1000 nM

## COc1cc2ncnc(N3CCC4(CC3)CCN(S(N)(=O)=O)C4)c2cc1OC [Example 29, 8-(6,7-dimethoxyquinazolin-4-+yl)-2,8-diazaspiro[4.5]decane-2-sulfonamide]
ENPP1 [1]; [6]
  Ki: < 100 nM
ENPP1 [2]; [7]
  Ki: < 100 nM
ENPP1 [3]
  Substrate Selectivity: Ki_AMP-pNP/Ki_cGAMP: 19.2
ENPP1 [4]; 10 µM compound, cGAMP substrate
  inhibition at 10 µM: > 75%
ENPP1 [4]; [8]
  Ki: < 100 nM
ENPP1 [5]
  Ki: < 100 nM

## COc1cc2ncnc(NCc3ccc(NS(N)(=O)=O)cc3)c2cc1OC [Example 34, N-(4-(((6,7-dimethoxyquinazolin-4-yl)amino)methyl)phenyl) sulfamidetrifluoroacetate]
ENPP1 [1]; [6]
  Ki: 100 to 1000 nM
ENPP1 [2]; [7]
  Ki: < 100 nM
ENPP1 [3]
  Substrate Selectivity: Ki_AMP-pNP/Ki_cGAMP: 17.4
ENPP1 [4]; 1 µM compound, cGAMP substrate
  inhibition at 1 µM: > 75%
ENPP1 [4]; [8]
  Ki: < 100 nM
ENPP1 [5]
  Ki: < 100 nM

## CCN(C)S(=O)(=O)NCCC1CCN(c2ncnc3cc(OC)c(OC)cc23)CC1 [Example 42, 2-(1-(6,7-dimethoxyquinazolin-4-yl)piperidin-4-yl)ethan-1-amino(N-ethyl-N-methyl)sulfonamide]
ENPP1 [1]
  Ki: > 1000 nM
ENPP1 [2]
  Ki: 100 to 1000 nM
ENPP1 [3]
  Substrate Selectivity: Ki_AMP-pNP/Ki_cGAMP: >96.1
ENPP1 [4]
  Ki: 100 to 1000 nM
ENPP1 [5]
  Ki: > 1000 nM

## COc1cc2nccc(N3CCC(CCNS(N)(=O)=O)CC3)c2cc1OC [Example 43, N-(2-(1-(6,7-dimethoxyquinolin-4-yl)piperidin-4-yl)ethyl)sulfamide]
ENPP1 [1]; [6]
  Ki: 100 to 1000 nM
ENPP1 [2]; [7]
  Ki: < 100 nM
ENPP1 [3]
  Substrate Selectivity: Ki_AMP-pNP/Ki_cGAMP: 22.9
ENPP1 [4]; 1 µM compound, cGAMP substrate
  inhibition at 1 µM: > 75%
ENPP1 [4]; [8]
  Ki: < 100 nM
ENPP1 [5]
  Ki: < 100 nM

## COc1ccc2c(-c3ccc(CNS(N)(=O)=O)cc3)ccnc2c1 [Example 55, N-(4-(7-methoxyquinolin-4-yl)benzyl)sulfamide]
IFN β gene transcription
  transcription of IFNβ: enhances transcription of IFNβ

Source: US20230183239A1, “ECTONUCLEOTIDE PYROPHOSPHATASE-PHOSPHODIESTERASE 1 (ENPP-1) INHIBITORS AND USES THEREOF” (AbbVie Inc., priority 2017, published 2023)
